Each compound was assayed against T1, Human thrombin (Homo sapiens, UniProt P00734) (assay: Inhibition of the protease activity of thrombin (chromogenic substrate S-2238)). Details: Table C; 3 nM thrombin, 125 μM S-2238, 10 min pre-incubation, RT.
T1 construct: purchased Haematologic Technologies Inc
Assay type: biochemical
In the case of `CC(=O)n1nc(-c2cccnc2)nc1NCc1ccc(C)cc1` [Cmpd 325, 1-(5-[(4-methylphenyl)methyl]amino-3-(pyridin-3-yl)-1H-1,2,4-triazol-1-yl)ethan-1-one], the IC50 is reported as < 100 nM. In the case of `CC(C)CC(=O)n1nc(-c2cccnc2)nc1NCc1cccs1` [Cmpd 375, 3-methyl-1-[3-(pyridin-3-yl)-5-[(thiophen-2-ylmethyl)amino]-1H-1,2,4-triazol-1-yl]butan-1-one], the IC50 is reported as < 100 nM. `CCC(=O)n1nc(-c2ccccc2)nc1NCc1ccccc1` [Cmpd 355, 1-[5-(benzylamino)-3-phenyl-1H-1,2,4-triazol-1-yl]propan-1-one] was tested, and the IC50 was 100 to 1000 nM. With `O=S(=O)(c1ccccc1)n1nc(-c2cccnc2)nc1NCc1cccs1` [Cmpd 327, 1-(benzenesulfonyl)-3-(pyridin-3-yl)-N-(thiophen-2-ylmethyl)-1H-1,2,4-triazol-5-amine] the IC50 was > 1000 nM. For `CS(=O)(=O)n1nc(C(=O)N2CCOCC2)nc1N` [Cmpd 360, 1-methanesulfonyl-3-[(morpholin-4-yl)carbonyl]-1H-1,2,4-triazol-5-amine], the IC50 was > 1000 nM. `O=C(Nc1ccc(Br)cc1)c1nc(-n2cnnc2)n[nH]1` [Cmpd 392, N-(4-bromophenyl)-3-(4H-1,2,4-triazol-4-yl)-1H-1,2,4-triazole-5-carboxamide] was tested, and the IC50 was > 1000 nM. In the case of `O=C(Nc1ccc(Cl)cc1Cl)c1n[nH]c(Cn2cncn2)n1` [Cmpd 390, N-(2,4-dichlorophenyl)-5-(1H-1,2,4-triazol-1-ylmethyl)-4H-1,2,4-triazole-3-carboxamide], the IC50 is reported as > 1000 nM. In the case of `COc1ccc(CNc2nc(-c3cccnc3)nn2C(=O)c2ccco2)cc1` [Cmpd 340, 1-[(furan-2-yl)carbonyl]-N-[(4-methoxyphenyl)methyl]-3-(pyridin-3-yl)-1H-1,2,4-triazol-5-amine], the IC50 is reported as 100 to 1000 nM. In the case of `COc1ccc(CNc2nc(-c3cccnc3)nn2C(=O)c2ccc(C)cc2)cc1` [Cmpd 404, N-[(4-methoxyphenyl)methyl]-1-[(4-methylphenyl)carbonyl]-3-(pyridin-3-yl)-1H-1,2,4-triazol-5-amine], the IC50 is reported as 100 to 1000 nM. With `Cc1ccc(C(=O)n2nc(-c3cccnc3)nc2N)cc1` [Cmpd 339, 1-[(4-methylphenyl)carbonyl]-3-(pyridin-3-yl)-1H-1,2,4-triazol-5-amine] the IC50 was 100 to 1000 nM.

Same assay, conditions: inhibition of the protease activity of thrombin
`O=C(c1ccccc1F)n1nc(-c2ccccn2)cc1NCc1ccccc1` [Cmpd 251, N-benzyl-1-[(2-fluorophenyl)carbonyl]-3-(pyridin-2-yl)-1H-pyrazol-5-amine] was tested, and the IC50 was < 100 nM. For `O=C(c1ccoc1)n1nc(-c2ccccn2)nc1NCc1ccc(F)cc1` [Cmpd 212, N-[(4-fluorophenyl)methyl]-1-[(furan-3-yl)carbonyl]-3-(pyridin-2-yl)-1H-1,2,4-triazol-5-amine], the IC50 was < 100 nM. `Fc1ccc(CNc2nc(-c3ccccn3)nn2CCc2ccccc2)cc1` [Cmpd 203, N-[(4-fluorophenyl)methyl]-1-(2-phenylethyl)-3-(pyridin-2-yl)-1H-1,2,4-triazol-5-amine] was tested, and the IC50 was > 1000 nM. For `O=C(c1ccccc1C(F)(F)F)n1nc(-c2ccccn2)nc1NCc1ccccc1` [Cmpd 286, N-benzyl-3-(pyridin-2-yl)-1-[2-(trifluoromethyl)phenyl]carbonyl-1H-1,2,4-triazol-5-amine], the IC50 was > 1000 nM. `O=C(c1ccco1)n1nc(-c2ccccn2)nc1NCc1ccc(F)cc1` [Cmpd 210, N-[(4-fluorophenyl)methyl]-1-[(furan-2-yl)carbonyl]-3-(pyridin-2-yl)-1H-1,2,4-triazol-5-amine] was tested, and the IC50 was < 100 nM. In the case of `O=C(c1ccc2ccccc2c1)n1nc(-c2ccccn2)cc1NCc1ccccc1` [Cmpd 272, N-benzyl-1-[(naphthalen-2-yl)carbonyl]-3-(pyridin-2-yl)-1H-pyrazol-5-amine], the IC50 is reported as > 1000 nM. In the case of `O=C(c1cccs1)n1nc(-c2ccccn2)nc1NCc1ccccc1` [Cmpd 282, N-benzyl-3-(pyridin-2-yl)-1-[(thiophen-2-yl)carbonyl]-1H-1,2,4-triazol-5-amine], the IC50 is reported as < 100 nM. For `COc1ccc(CNc2nc(-c3ccncc3)nn2C(=O)c2cccs2)cc1` [Cmpd 229, N-[(4-methoxyphenyl)methyl]-3-(pyridin-4-yl)-1-[(thiophen-2-yl)carbonyl]-1H-1,2,4-triazol-5-amine], the IC50 was > 1000 nM.

Same assay, conditions: inhibition of the protease activity of thrombin; class symbols a/b/c
Work on `CCC(=O)n1nc(-c2cccs2)nc1NCc1ccc(F)cc1` [Cmpd 83, 1-(5-[(4-fluorophenyl)methyl]amino-3-(thiophen-2-yl)-1H-1,2,4-triazol-1-yl)propan-1-one] yielded an IC50 of 100 to 1000 nM. `CCC(=O)n1nc(-c2ccncc2)nc1NCc1ccc(F)cc1` [Cmpd 81, 1-(5-[(4-fluorophenyl)methyl]amino-3-(pyridin-4-yl)-1H-1,2,4-triazol-1-yl)propan-1-one] was tested, and the IC50 was < 100 nM. `COc1ccccc1C(=O)n1nc(-c2ccco2)nc1NCc1ccc(F)cc1` [Cmpd 26] was tested, and the IC50 was < 100 nM. With `CN(C)C(=O)n1nc(-c2cccnc2)nc1NCc1ccc(F)cc1` [Cmpd 188, 5-[(4-fluorophenyl)methyl]amino-N,N-dimethyl-3-(pyridin-3-yl)-1H-1,2,4-triazole-1-carboxamide] the IC50 was > 1000 nM. `O=C(c1cccc2c1OCCO2)n1nc(-c2ccccc2)nc1NCc1ccc(F)cc1` [Cmpd 102, 1-[(2,3-dihydro-1,4-benzodioxin-5-yl)carbonyl]-N-[(4-fluorophenyl)methyl]-3-phenyl-1H-1,2,4-triazol-5-amine] was tested, and the IC50 was < 100 nM. With `O=C(N1CCOCC1)n1nc(-c2cccnc2)nc1NCc1ccc(F)cc1` [Cmpd 17] the IC50 was > 1000 nM. `COC(=O)n1nc(-c2cccnc2)nc1NCc1ccc(F)cc1` [Cmpd 20] gave an IC50 of 100 to 1000 nM. `COc1ccc(CNc2nc(-c3cccnc3)nn2C(=O)C(C)(C)C)cc1` [Cmpd 94, 1-(5-[(4-methoxyphenyl)methyl]amino-3-(pyridin-3-yl)-1H-1,2,4-triazol-1-yl)-2,2-dimethylpropan-1-one] was tested, and the IC50 was < 100 nM. `Cc1ccc(C(=O)n2nc(-c3ccccc3F)cc2NCc2ccccc2)c(N)c1` [Cmpd 106, 1-[(2-amino-4-methylphenyl)carbonyl]-N-benzyl-3-(2-fluorophenyl)-1H-pyrazol-5-amine] was tested, and the IC50 was > 1000 nM. With `O=C(CCc1ccccc1)n1nc(-c2ccccn2)nc1NCc1ccc(F)cc1` [Cmpd 68, 1-(5-[(4-fluorophenyl)methyl]amino-3-(pyridin-2-yl)-1H-1,2,4-triazol-1-yl)-3-phenylpropan-1-one] the IC50 was < 100 nM. For `COc1ccccc1C(=O)n1nc(-c2ccccn2)nc1NCc1cccc2ccccc12` [Cmpd 119, 1-[(2-methoxyphenyl)carbonyl]-N-(naphthalen-1-ylmethyl)-3-(pyridin-2-yl)-1H-1,2,4-triazol-5-amine], the IC50 was > 1000 nM. In the case of `COc1ccccc1C(=O)n1nc(-c2ccccn2)nc1NCc1ccc2ccccc2c1` [Cmpd 120, 1-[(2-methoxyphenyl)carbonyl]-N-(naphthalen-2-ylmethyl)-3-(pyridin-2-yl)-1H-1,2,4-triazol-5-amine], the IC50 is reported as > 1000 nM. With `CC(C)(C)C(=O)n1nc(-c2cccs2)nc1NCc1ccc(F)cc1` [Cmpd 82, 1-(5-[(4-fluorophenyl)methyl]amino-3-(thiophen-2-yl)-1H-1,2,4-triazol-1-yl)-2,2-dimethylpropan-1-one] the IC50 was < 100 nM. In the case of `CCC(=O)n1nc(-c2ccccc2)c(C)c1NCc1ccc(F)cc1` [Cmpd 85, 1-(5-[(4-fluorophenyl)methyl]amino-4-methyl-3-phenyl-1H-pyrazol-1-yl)propan-1-one], the IC50 is reported as > 1000 nM.
